According to ChEMBL document CHEMBL1201862, “PubChem BioAssay data set” (2004):
Calls of active or inactive are those of the source.

Experiments:
[1] = target: Sphingosine 1-phosphate receptor 1 (Homo sapiens, UniProt P21453); assay: Fluorescence-based counterscreen assay for S1P4 agonists: Cell-based dose response high throughput screening assay to identify agonists of the Sphingosine 1-Phosphate Receptor 1 (S1P1). [Related pubchem assays (depositor defined):AID1509, AID1523, AID1801, AID463107, AID463118, AID463119, AID463122, AID463123, AID463129, AID463225, AID504400, AID504460]; format: functional
Chain of Sphingosine 1-phosphate receptor 1 (P21453 whole entry): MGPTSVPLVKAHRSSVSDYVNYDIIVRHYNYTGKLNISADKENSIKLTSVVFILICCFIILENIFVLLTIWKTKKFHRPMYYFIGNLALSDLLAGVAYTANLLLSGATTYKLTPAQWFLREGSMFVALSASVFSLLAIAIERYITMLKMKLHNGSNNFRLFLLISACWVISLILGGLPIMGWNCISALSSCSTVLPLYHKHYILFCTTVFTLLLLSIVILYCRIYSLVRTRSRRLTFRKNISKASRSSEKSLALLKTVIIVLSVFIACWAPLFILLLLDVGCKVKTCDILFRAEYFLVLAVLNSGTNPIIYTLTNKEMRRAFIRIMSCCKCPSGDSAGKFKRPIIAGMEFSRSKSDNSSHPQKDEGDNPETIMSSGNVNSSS

[2] = target: Sphingosine 1-phosphate receptor 4 (Homo sapiens, UniProt O95977); assay: Fluorescence dose response cell-based high throughput screening assay for agonists of the Sphingosine 1-Phosphate Receptor 4 (S1P4). [Related pubchem assays: 1509 (Primary screen.), 1523 (Confirmation screen in triplicates.)]; format: functional
Chain of Sphingosine 1-phosphate receptor 4 (O95977 whole entry): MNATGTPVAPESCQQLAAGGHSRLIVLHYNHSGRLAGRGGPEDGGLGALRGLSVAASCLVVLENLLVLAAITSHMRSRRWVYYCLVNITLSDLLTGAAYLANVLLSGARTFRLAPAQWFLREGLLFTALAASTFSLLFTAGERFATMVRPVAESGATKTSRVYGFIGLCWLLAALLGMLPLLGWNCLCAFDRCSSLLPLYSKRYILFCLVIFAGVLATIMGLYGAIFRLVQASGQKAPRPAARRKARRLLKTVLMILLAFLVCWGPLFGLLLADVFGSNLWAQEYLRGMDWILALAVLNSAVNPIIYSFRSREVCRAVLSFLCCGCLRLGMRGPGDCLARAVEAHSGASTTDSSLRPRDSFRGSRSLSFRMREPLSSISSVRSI

Coagulation factor XII = target: T1, Coagulation factor XII (Homo sapiens, UniProt P00748); assay: activated coagulation factor XII inhibitor potency, concentration-effect curve, cell-free (AID 716); format: functional
T1 sequence (P00748 whole entry): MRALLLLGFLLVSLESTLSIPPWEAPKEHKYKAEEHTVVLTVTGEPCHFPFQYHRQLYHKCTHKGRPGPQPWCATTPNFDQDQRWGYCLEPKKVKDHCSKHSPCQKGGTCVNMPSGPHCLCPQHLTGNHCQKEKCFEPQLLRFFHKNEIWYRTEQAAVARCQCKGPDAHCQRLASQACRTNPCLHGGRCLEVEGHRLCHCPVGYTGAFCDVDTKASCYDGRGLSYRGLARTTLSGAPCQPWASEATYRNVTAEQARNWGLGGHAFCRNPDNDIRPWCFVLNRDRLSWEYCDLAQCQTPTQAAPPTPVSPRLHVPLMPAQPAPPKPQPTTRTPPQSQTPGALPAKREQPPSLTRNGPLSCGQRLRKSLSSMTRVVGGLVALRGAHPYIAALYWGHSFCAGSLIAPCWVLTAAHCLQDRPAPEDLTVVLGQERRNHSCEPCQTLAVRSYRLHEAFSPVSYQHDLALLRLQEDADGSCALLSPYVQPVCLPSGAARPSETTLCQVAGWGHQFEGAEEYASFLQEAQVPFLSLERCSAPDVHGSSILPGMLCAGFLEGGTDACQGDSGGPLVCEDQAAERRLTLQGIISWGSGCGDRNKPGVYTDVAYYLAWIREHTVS

[3] = target: Voltage-dependent T-type calcium channel subunit alpha-1H (Homo sapiens, UniProt O95180); assay: inhibition of CACNA1H calcium flux – cell-based, SynthLib3 library, HEK293 Cav3.2, fluorescence (AID 493041); format: functional
Chain of Voltage-dependent T-type calcium channel subunit alpha-1H (O95180 whole entry): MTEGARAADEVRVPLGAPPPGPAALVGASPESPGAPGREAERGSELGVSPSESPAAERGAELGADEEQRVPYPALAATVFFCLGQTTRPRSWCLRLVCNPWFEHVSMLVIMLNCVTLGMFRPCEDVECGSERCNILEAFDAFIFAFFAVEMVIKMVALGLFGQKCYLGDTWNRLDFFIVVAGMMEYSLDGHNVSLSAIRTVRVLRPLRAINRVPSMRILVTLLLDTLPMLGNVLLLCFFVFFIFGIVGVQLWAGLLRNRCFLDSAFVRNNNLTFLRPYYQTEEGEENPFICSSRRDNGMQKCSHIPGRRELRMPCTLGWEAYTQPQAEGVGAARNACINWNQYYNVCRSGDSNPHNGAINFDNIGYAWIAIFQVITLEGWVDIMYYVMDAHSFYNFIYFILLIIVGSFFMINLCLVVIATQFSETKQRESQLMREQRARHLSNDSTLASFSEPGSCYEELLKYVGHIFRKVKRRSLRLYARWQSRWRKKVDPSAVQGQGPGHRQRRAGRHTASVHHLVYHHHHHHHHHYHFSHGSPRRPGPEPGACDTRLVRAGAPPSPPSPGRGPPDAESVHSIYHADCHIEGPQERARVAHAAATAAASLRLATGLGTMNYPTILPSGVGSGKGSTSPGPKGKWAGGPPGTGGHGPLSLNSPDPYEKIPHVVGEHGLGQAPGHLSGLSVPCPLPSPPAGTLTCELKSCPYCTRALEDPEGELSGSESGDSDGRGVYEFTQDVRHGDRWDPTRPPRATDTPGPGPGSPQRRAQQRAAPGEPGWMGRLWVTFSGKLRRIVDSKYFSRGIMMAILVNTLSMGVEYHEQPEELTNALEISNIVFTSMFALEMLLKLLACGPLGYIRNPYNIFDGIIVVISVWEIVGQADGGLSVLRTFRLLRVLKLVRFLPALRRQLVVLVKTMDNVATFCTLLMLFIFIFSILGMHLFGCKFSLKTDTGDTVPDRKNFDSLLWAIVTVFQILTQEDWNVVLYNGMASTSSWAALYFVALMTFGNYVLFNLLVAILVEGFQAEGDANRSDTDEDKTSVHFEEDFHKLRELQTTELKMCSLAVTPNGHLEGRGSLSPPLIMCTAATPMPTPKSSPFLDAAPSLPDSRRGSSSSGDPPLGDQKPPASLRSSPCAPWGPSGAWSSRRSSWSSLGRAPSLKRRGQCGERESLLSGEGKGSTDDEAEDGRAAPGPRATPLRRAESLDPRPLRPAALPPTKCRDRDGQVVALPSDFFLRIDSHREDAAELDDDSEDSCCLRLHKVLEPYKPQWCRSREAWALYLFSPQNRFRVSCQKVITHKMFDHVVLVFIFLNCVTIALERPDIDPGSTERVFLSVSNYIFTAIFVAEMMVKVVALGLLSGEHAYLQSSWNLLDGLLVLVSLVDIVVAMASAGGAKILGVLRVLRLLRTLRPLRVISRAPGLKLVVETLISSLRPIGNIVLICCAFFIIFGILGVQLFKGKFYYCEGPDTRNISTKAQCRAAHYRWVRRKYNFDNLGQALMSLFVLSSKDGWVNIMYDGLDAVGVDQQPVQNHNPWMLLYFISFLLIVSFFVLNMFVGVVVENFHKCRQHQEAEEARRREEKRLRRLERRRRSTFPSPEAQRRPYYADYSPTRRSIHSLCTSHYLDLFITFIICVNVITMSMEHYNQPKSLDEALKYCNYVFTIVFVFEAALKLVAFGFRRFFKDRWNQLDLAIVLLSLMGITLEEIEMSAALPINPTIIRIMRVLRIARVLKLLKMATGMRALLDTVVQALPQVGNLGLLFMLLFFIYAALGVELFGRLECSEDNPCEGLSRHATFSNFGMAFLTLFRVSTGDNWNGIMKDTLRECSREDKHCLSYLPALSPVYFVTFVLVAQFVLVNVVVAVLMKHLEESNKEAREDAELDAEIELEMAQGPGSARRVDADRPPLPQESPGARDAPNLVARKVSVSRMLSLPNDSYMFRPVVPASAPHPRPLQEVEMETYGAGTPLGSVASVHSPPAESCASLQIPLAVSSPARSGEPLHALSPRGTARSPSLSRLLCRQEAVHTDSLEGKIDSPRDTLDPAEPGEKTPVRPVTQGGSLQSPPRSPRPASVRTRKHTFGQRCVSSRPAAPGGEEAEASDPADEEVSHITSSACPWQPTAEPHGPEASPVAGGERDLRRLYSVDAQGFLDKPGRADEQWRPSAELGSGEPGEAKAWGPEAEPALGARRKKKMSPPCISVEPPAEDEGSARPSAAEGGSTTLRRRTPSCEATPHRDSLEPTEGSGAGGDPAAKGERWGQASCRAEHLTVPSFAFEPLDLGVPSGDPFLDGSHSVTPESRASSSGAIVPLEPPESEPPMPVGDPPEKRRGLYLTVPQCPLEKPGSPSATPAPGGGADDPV

[4] = Luminescence Cell-Based Dose Retest to Confirm Inhibitors of Cancer Stem Cells. [Related pubchem assays (depositor defined):AID2717, AID2721]; format: functional, Homo sapiens; conditions: Homo sapiens
[5] = viability loss of HMLE_sh_eGFP cells – cell-based, luminescence, counter-screen for HMLE_sh_ECad selective toxicity project, dose response (AID 463074); format: functional, Homo sapiens;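 also: HMLE human mammary epithelial cells expressing control shRNA against eGFP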
Integrin alpha-L = Integrin alpha-L (Mus musculus, UniProt P24063); assay: modulators of CD8 T cell-vesicle binding, dose response, powder samples, mouse 2C CD8+ cells (AID 504565); format: functional
Chain of Integrin alpha-L (P24063 whole entry): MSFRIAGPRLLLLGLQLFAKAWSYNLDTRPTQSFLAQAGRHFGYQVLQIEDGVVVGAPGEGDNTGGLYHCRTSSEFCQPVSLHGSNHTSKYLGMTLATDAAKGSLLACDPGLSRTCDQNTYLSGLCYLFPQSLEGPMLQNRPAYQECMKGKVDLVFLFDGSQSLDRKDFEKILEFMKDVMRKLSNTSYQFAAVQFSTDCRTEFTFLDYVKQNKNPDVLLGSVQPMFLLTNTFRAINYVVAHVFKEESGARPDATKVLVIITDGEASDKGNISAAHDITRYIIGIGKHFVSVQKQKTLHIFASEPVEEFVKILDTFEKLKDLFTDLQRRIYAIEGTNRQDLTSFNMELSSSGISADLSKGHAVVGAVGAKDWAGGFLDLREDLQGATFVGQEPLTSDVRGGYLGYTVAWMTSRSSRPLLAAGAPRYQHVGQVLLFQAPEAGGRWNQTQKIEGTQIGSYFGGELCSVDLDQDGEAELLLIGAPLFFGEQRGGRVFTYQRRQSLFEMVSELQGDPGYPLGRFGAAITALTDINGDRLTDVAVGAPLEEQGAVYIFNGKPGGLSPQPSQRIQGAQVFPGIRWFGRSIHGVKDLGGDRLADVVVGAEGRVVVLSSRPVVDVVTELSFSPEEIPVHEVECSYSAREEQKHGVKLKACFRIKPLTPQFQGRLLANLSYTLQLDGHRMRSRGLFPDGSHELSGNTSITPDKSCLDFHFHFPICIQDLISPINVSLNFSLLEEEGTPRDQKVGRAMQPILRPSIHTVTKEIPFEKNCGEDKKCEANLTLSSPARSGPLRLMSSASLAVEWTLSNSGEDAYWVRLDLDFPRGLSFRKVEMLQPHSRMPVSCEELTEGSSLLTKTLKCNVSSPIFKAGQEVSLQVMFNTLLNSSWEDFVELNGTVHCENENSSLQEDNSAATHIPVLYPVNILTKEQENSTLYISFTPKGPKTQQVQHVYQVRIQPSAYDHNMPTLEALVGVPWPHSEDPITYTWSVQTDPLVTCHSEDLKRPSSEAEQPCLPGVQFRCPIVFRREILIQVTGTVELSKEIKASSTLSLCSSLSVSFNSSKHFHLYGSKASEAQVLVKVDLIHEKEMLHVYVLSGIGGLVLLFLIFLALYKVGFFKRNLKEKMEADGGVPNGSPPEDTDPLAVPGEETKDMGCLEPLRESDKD

CAAX prenyl protease 1 = CAAX prenyl protease 1 (Saccharomyces cerevisiae S288c, UniProt P47154); assay: yeast CAAX protease Ste24 inhibition – biochemical, S. cerevisiae, plate reader, cherry-pick, dose response (AID 488815)
Chain of CAAX prenyl protease 1 (P47154 whole entry): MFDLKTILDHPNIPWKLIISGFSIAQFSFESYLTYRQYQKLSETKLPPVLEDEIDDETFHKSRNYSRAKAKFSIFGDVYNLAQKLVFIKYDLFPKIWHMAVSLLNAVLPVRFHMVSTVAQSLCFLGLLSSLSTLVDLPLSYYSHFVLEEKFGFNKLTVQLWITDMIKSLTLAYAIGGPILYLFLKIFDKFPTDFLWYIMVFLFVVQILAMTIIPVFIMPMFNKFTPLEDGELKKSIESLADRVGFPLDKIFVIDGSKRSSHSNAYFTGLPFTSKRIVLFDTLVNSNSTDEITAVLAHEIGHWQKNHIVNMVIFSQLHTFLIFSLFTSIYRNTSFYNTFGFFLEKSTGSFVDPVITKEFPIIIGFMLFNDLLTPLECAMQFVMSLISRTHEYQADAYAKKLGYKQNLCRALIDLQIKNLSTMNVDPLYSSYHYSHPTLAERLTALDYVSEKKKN

[6] = NIH-3T3 fibroblast cytotoxicity, dose response, cytotoxicity control, cell-based, fluorescence, Alamar Blue, secondary assay (AID 2327); format: functional;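 also: NIH-3T3 mouse fibroblasts cultured with fluconazole at 8 µg/mL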
[7] = fluconazole-exposed Candida albicans growth modulators – fluorescence, retest, confirmation (AID 2467); format: functional, cell-based
[8] = THP-1 cell cytotoxicity, dose response, cytotoxicity control for non-replicating M. tuberculosis project (AID 489025); format: functional
[9] = HepG2 cell cytotoxicity, dose response, cytotoxicity control for non-replicating M. tuberculosis project (AID 489018); format: functional; conditions: Mycobacterium tuberculosis
[10] = Vero E6 cell cytotoxicity, dose response, cytotoxicity control for non-replicating M. tuberculosis project, secondary assay (AID 492998); format: functional, VeroE6; conditions: Vero C1008
cells = format: functional
HEK293 [11] = assay: HEK293T cell viability loss, resazurin readout – resazurin fluorescence, cytotoxicity control for NF-kB activator project, SAR follow-up (AID 493251); format: functional, cell-based; conditions: Homo sapiens
Jurkat = assay: SAR Analysis of small molecule inhibitors of T-cell specific antigen receptor-induced NF-kB activation in a Jurkat cell line using a luminescence assay - Set 2. [Related pubchem assays (depositor defined):AID435003, AID435012, AID465]; format: functional, cell-based; conditions: Homo sapiens
HEK293 [12] = assay: SAR Analysis of small molecule inhibitors of T-cell specific antigen receptor-induced NF-kB activation in a HEK-293T cell line using a luminescence assay - Set 2. [Related pubchem assays (depositor defined):AID435003, AID435012, AID489026]; format: functional, cell-based; conditions: Homo sapiens

## CNC(=O)c1[nH]cnc1C(=O)N[C@@H](CC(C)C)C(=O)OCc1ccccc1
[1]
  EC50: 22 µM (inactive)
[2]
  EC50: 5.27 µM (active)

## O=C1C(c2ccncc2)N(CCC2=CCCCC2)C(=O)CN1C1CCCCC1 (configuration not stated)
Coagulation factor XII
  IC50: > 50 µM (inactive)

## CC(Cc1nnc(NC(=O)COc2ccc(Cl)cc2Cl)o1)CC(C)(C)C (configuration not stated)
[3]
  EC50: 10 µM (active)

## CCC(C(=O)Nc1cc(OC)c(NC(=O)c2ccccc2)cc1OC)c1ccccc1 (configuration not stated)
[4]
  AC50: 4.24 µM (active)
[5]
  AC50: 51.9 µM (active)

## Cc1cc(C)n(C(=O)c2sc3cc(F)ccc3c2Cl)n1
Integrin alpha-L
  EC50: 0.299 µM (active)

## CCN=C(S)NNC(=O)CCn1cc(C)cn1
CAAX prenyl protease 1
  AC50: 32.4 µM (active)

## Cc1ccc(NC(=O)c2ccc([N+](=O)[O-])o2)cc1C
[6]
  EC50: 14.2 µM (active)
[7]
  EC50: 1.87 µM (active)
[8]
  CC50: 16.2 µM (active)
[9]
  CC50: 15.1 µM (active)
[10]
  CC50: 6.87 µM (active)
cells
  IC50: 0.7 µM (active)
HEK293 [11]
  IC50: 47.3 µM (inactive)
Jurkat
  IC50: 6.86 µM (active)
HEK293 [12]
  IC50: 38.6 µM (inactive)
